# Data taken from US20240252488A1 (KOREA RESEARCH INSTITUTE OF CHEMICAL TECHNOLOGY, priority 2020, published 2024).
# Columns and labels:
# MLKL [1] = target: T1, MLKL (Homo sapiens, UniProt Q8NB16); assay: MLKL degradation assay in HepG2 cell line (western blot); assay type: cell-based; set-up: endogenous in cells; host or cells: HepG2 or HaCaT; details: cell line not given; for Degradation assay (Degradation %) 1 μM: compound 1 μM; for Degradation assay (Degradation %) 10 μM: compound 10 μM
# T1 sequence (Q8NB16 1-471): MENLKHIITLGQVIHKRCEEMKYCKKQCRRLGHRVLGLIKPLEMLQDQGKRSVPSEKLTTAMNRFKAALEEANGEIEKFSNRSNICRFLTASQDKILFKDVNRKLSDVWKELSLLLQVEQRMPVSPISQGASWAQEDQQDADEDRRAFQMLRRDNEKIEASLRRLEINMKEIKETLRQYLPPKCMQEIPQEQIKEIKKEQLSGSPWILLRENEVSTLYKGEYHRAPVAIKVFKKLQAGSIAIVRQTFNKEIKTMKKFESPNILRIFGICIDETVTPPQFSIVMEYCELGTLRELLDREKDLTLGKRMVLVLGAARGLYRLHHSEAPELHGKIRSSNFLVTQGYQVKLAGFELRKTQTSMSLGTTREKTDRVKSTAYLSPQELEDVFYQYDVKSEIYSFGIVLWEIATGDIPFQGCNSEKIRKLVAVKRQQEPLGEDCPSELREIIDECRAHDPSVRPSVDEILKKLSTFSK
# How it was run: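 Degradation is judged from MLKL band intensity on immunoblots of HepG2 lysates taken after 20-24 hours of compound at final 1 or 10 μM.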
# FADD−/− Jurkat cells = assay: Necroptosis inhibition assay, TNF-α-induced necroptosis (CellTiter-Glo 2.0); assay type: cell-based, human; details: TNF-α 15 ng/mL; for Necroptosis inhibition assay (Rescue %) 1 μM: compound 1 μM; for Necroptosis inhibition assay (Rescue %) 10 μM: compound 10 μM; for Necroptosis inhibition assay (Rescue %) 1.1 μM: compound 1.1 µM
# How it was run: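 Tested at three fixed concentrations (0.1, 1, 10 μM final) with a 30-minute room-temperature preincubation ahead of 15 ng/mL TNF-α challenge lasting 20 to 24 hours. Inhibition rate and cytotoxicity derive from ATP luminescence.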
# MLKL [2] = target: T1, MLKL; assay: Measurement of binding affinity with MLKL receptor (competitive binding assay, Kd); set-up: made in house; host or cells: HEK 293 cell line (T7 phage in E. coli BL21-derived host is also described)
# How it was run: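 Competitive displacement of MLKL, expressed in HEK 293 cells and DNA-tagged for qPCR, from immobilized ligand on biotin-blocked beads. Compounds were added from 111× DMSO stocks (final DMSO 0.9%). Kinase left in the eluates was quantified by qPCR to give Kd.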
Degradation assay (Degradation %) 1 μM (MLKL [1]) [%],Degradation assay (Degradation %) 10 μM (MLKL [1]) [%],Kd (MLKL [2]) [nM],SMILES,Necroptosis inhibition assay (Rescue %) 1 μM (FADD−/− Jurkat cells) [%],Necroptosis inhibition assay (Rescue %) 10 μM (FADD−/− Jurkat cells) [%],Necroptosis inhibition assay (Rescue %) 1.1 μM (FADD−/− Jurkat cells)
59.87,40.64,6.9,"Cc1ncsc1-c1ccc(CNC(=O)[C@H]2C[C@H](O)CN2C(=O)[C@@H](NC(=O)CN2CCC(CCN3CCC(n4cc(-c5cnc(N)c(C(=O)OC(C(=O)Nc6ccc(F)cc6)c6ccccc6)n5)cn4)CC3)CC2)C(C)(C)C)cc1 (stereo partly drawn) [TDH-312, 2-((4-fluorophenyl)amino)-2-oxo-1-phenylethyl 3-amino-6-(1-(1-(2-(1-(2-(((S)-1-((2R,4S)-4-hydroxy-2-((4-(4-methylthiazol-5-yl)benzyl)carbamoyl)pyrrolidin-1-yl)-3,3-dimethyl-1-oxobutan-2-yl)amino)-2-oxoethyl)piperidin-4-yl)ethyl)piperidin-4-yl)-1H-pyrazol-4-yl)pyrazine-2-carboxylate]",75.61,,
69.07,58.46,1.8,"Nc1ncc(-c2cnn(C3CCN(CC4CCN(C(=O)CCc5ccc6c(c5)C(=O)N(C5CCC(=O)NC5=O)C6=O)CC4)CC3)c2)nc1C(=O)O[C@@H](C(=O)Nc1ccc(F)cc1)c1ccccc1 (stereo partly drawn) [TDH-328, (R)-2-((4-fluorophenyl)amino)-2-oxo-1-phenylethyl 3-amino-6-(1-(1-((1-(3-(2-(2,6-dioxopiperidin-3-yl)-1,3-dioxoisoindolin-5-yl)propanoyl)piperidin-4-yl)methyl)piperidin-4-yl)-1H-pyrazol-4-yl)pyrazine-2-carboxylate]",52.22,31.65,
59.64,49.16,0.65,"Nc1ncc(-c2cnn(C3CCN(CCC4CCN(C(=O)COc5ccc6nnn(C7CCC(=O)NC7=O)c(=O)c6c5)CC4)CC3)c2)nc1C(=O)O[C@@H](C(=O)Nc1ccc(F)cc1)c1ccccc1 (stereo partly drawn) [TDH-330, (R)-2-((4-fluorophenyl)amino)-2-oxo-1-phenylethyl 3-amino-6-(1-(1-(2-(1-(2-((3-(2,6-dioxopiperidin-3-yl)-4-oxo-3,4-dihydrobenzo[d][1,2,3]triazin-6-yl)oxy)acetyl)piperidin-4-yl)ethyl)piperidin-4-yl)-1H-pyrazol-4-yl)pyrazine-2-carboxylate]",,51.95,54.05 (1.1µM) %
54.86,60.37,2.6,"Nc1ncc(-c2cnn(C3CCN(CCOC4CCN(C(=O)COc5cccc6c5C(=O)N(C5CCC(=O)NC5=O)C6=O)CC4)CC3)c2)nc1C(=O)O[C@@H](C(=O)Nc1ccc(F)cc1)c1ccccc1 (stereo partly drawn) [TDH-331, (R)-2-((4-fluorophenyl)amino)-2-oxo-1-phenylethyl 3-amino-6-(1-(1-(2-((1-(2-((2-(2,6-dioxopiperidin-3-yl)-1,3-dioxoisoindolin-4-yl)oxy)acetyl)piperidin-4-yl)oxy)ethyl)piperidin-4-yl)-1H-pyrazol-4-yl)pyrazine-2-carboxylate]",,47.13,49.38 (1.1 µM) %
61.62,63.17,2.6,"Nc1ncc(-c2cnn(C3CCN(CCOC4CCN(C(=O)COc5ccc6c(c5)C(=O)N(C5CCC(=O)NC5=O)C6=O)CC4)CC3)c2)nc1C(=O)O[C@@H](C(=O)Nc1ccc(F)cc1)c1ccccc1 (stereo partly drawn) [TDH-332, (R)-2-((4-fluorophenyl)amino)-2-oxo-1-phenylethyl 3-amino-6-(1-(1-(2-((1-(2-((2-(2,6-dioxopiperidin-3-yl)-1,3-dioxoisoindolin-5-yl)oxy)acetyl)piperidin-4-yl)oxy)ethyl)piperidin-4-yl)-1H-pyrazol-4-yl)pyrazine-2-carboxylate]",,37.17,68.62 (1.1 µM) %
57.66,71.32,4.1,"Nc1ncc(-c2cnn(C3CCN(CCC4CCN(C(=O)C5CN(c6ccc7nnn(C8CCC(=O)NC8=O)c(=O)c7c6)C5)CC4)CC3)c2)nc1C(=O)O[C@@H](C(=O)Nc1ccc(F)cc1)c1ccccc1 (stereo partly drawn) [TDH-333, (R)-2-((4-fluorophenyl)amino)-2-oxo-1-phenylethyl 3-amino-6-(1-(1-(2-(1-(1-(3-(2,6-dioxopiperidin-3-yl)-4-oxo-3,4-dihydrobenzo[d][1,2,3]triazin-6-yl)azetidine-3-carbonyl)piperidin-4-yl)ethyl)piperidin-4-yl)-1H-pyrazol-4-yl)pyrazine-2-carboxylate]",,36.65,58.92 (1.1µM) %
75.98,83.61,0.82,"Nc1ncc(-c2cnn(C3CCN(CCC4CCN(C(=O)CNc5ccc6nnn(C7CCC(=O)NC7=O)c(=O)c6c5)CC4)CC3)c2)nc1C(=O)O[C@@H](C(=O)Nc1ccc(F)cc1)c1ccccc1 (stereo partly drawn) [TDH-334, (R)-2-((4-fluorophenyl)amino)-2-oxo-1-phenylethyl 3-amino-6-(1-(1-(2-(1-((3-(2,6-dioxopiperidin-3-yl)-4-oxo-3,4-dihydrobenzo[d][1,2,3]triazin-6-yl)glycyl)piperidin-4-yl)ethyl)piperidin-4-yl)-1H-pyrazol-4-yl)pyrazine-2-carboxylate]",,50.45,86.58 (1.1 µM) %
73.04,66.71,1.4,"Nc1ncc(-c2cnn(C3CCN(CC4CCN(C(=O)CCc5cccc6c5C(=O)N(C5CCC(=O)NC5=O)C6=O)CC4)CC3)c2)nc1C(=O)O[C@@H](C(=O)Nc1ccc(F)cc1)c1ccccc1 (stereo partly drawn) [TDH-336, (R)-2-((4-fluorophenyl)amino)-2-oxo-1-phenylethyl 3-amino-6-(1-(1-((1-(3-(2-(2,6-dioxopiperidin-3-yl)-1,3-dioxoisoindolin-4-yl)propanoyl)piperidin-4-yl)methyl)piperidin-4-yl)-1H-pyrazol-4-yl)pyrazine-2-carboxylate]",39.89,19.67,
46.82,65.07,2.5,"Nc1ncc(-c2cnn(C3CCN(C(=O)CC4CCN(C(=O)COc5cccc6c5C(=O)N(C5CCC(=O)NC5=O)C6=O)CC4)CC3)c2)nc1C(=O)O[C@@H](C(=O)Nc1ccc(F)cc1)c1ccccc1 (stereo partly drawn) [TDH-337, (R)-2-((4-fluorophenyl)amino)-2-oxo-1-phenylethyl 3-amino-6-(1-(1-(2-(1-(2-((2-(2,6-dioxopiperidin-3-yl)-1,3-dioxoisoindolin-4-yl)oxy)acetyl)piperidin-4-yl)acetyl)piperidin-4-yl)-1H-pyrazol-4-yl)pyrazine-2-carboxylate]",32.31,45.5,
59.83,79.19,5.5,"Nc1ncc(-c2cnn(C3CCN(C(=O)CC4CCN(C(=O)COc5ccc6c(c5)C(=O)N(C5CCC(=O)NC5=O)C6=O)CC4)CC3)c2)nc1C(=O)O[C@@H](C(=O)Nc1ccc(F)cc1)c1ccccc1 (stereo partly drawn) [TDH-338, (R)-2-((4-fluorophenyl)amino)-2-oxo-1-phenylethyl 3-amino-6-(1-(1-(2-(1-(2-((2-(2,6-dioxopiperidin-3-yl)-1,3-dioxoisoindolin-5-yl)oxy)acetyl)piperidin-4-yl)acetyl)piperidin-4-yl)-1H-pyrazol-4-yl)pyrazine-2-carboxylate]",50.8,50.29,
71.36,51.92,13,"Nc1ncc(-c2cnn(C3CCN(C(=O)CC4CCN(C(=O)CNc5cccc6c5C(=O)N(C5CCC(=O)NC5=O)C6=O)CC4)CC3)c2)nc1C(=O)O[C@@H](C(=O)Nc1ccc(F)cc1)c1ccccc1 (stereo partly drawn) [TDH-339, (R)-2-((4-fluorophenyl)amino)-2-oxo-1-phenylethyl 3-amino-6-(1-(1-(2-(1-((2-(2,6-dioxopiperidin-3-yl)-1,3-dioxoisoindolin-4-yl)glycyl)piperidin-4-yl)acetyl)piperidin-4-yl)-1H-pyrazol-4-yl)pyrazine-2-carboxylate]",12.23,12.31,
